Measured values: patent US20060089335A1, “Compositions and methods for enhancing cognitive function and synaptic plasticity” (priority 2003, published 2006)
Entries after “also recorded” stand apart in the source; their conditions may differ.

Tests used:
[1] = rat, in vivo
Method: Determination of [Mg^++] in CSF. Total Mg^++ levels in CSF in control and Mg^++-treated rats were determined by a colorimetric method with xylidyl blue (Anilytics Incorporated, MD) (Thomas, L. (1998). Clinical Laboratory diagnostics. 1st ed. Francfurt: TH-Books Verlagsgesellschaft, 231-41.)
(§1) Behavior test: Novel object recognition. The subjects were 20 experimentally naive, female, Sprague-Dawley rats (Charles River), 1 year old at the beginning of the experiment. They were housed two per cage with continuous access to food and water under a 12:12 light-dark cycle, with light onset at 8:00 a.m. Rats in the Mg^++-treated group received drinking water containing 6 mg/kg/day MgCl2 for 4 months before experiments.
We noted that the extracellular concentration Mg^+ in the CSF of a normal human brain is about 1.2 mM, the same concentration at which we obtained the maximum synaptic plasticity in vitro (FIG. 8B). We tested whether increasing Mg^++ concentration might also lead to enhanced synaptic plasticity in rats in vivo. Since Mg^++ is an essential mineral, normally obtained only by ingestion, we added a low quantity of Mg^++ (˜6 mg/kg/day) to drinking water in attempt to raise CSF Mg^++ concentration. This amount was proportional to that recommended by the FDA as a daily food supplement for humans. Two groups of adult Sprague-Dawley rats (8 months) were used as experimental populations. […]

[2] = test system: presynaptic terminals of cultured hippocampal neurons; assay: TBS-induced presynaptic plasticity measured by FM 1-43 dye uptake in hippocampal cultures; assay type: cell-based, rat
[3] = rat, in vivo; remark: listed apart in the source
[4] = test system: cultured hippocampal neurons; assay: field EPSC (fEPSC) recording before and after TBS; assay type: cell-based, rat
Method: (§2) Electrophysiology. Dual whole cell perforated patch clamp recordings were made on two interconnected cultured hippocampal pyramidal neurons. Perforated patch pipettes were front-filled with a solution containing (in mM): CsOH, 127; D-gluconic acid, 127; CsCl, 4; HEPES, 10; NaCl, 8; EGTA, 0.4; pH was adjusted to 7.25 with CsOH, and then back-filled with the same solution containing […] amphotericin B (Sigma, St. Louis, Mo.). Extracellular solution contained (in mM): NaCl, 145; KCl, 3; glucose, 15; HEPES, 10; MgCl2, 0.8-1.2; CaCl2, 1.2; 0.005 glycine (Sigma), 0.05 picrotoxin (Sigma); pH adjusted to 7.4 with NaOH. MgCl2 concentration was matched to its concentration in culture medium. In experiments where effects of drugs on neuronal activity were quantified (FIG. 4D), recordings were done in culture medium (with HEPES replacing bicarbonate/CO2 to maintain pH). All experiments were performed at room temperature. For assaying synaptic connectivity, each neuron was stimulated by 1 ms step depolarization from −70 to +30 mV in voltage-clamp mode. Only neurons with monosynaptic connections were used. […] Recordings with access resistance>20 MΩ or that varied substantially were rejected from analysis.
To confirm that such a prominent TBS-induced increase in Pr does contribute to the enhancement of total synaptic strength, the magnitude of potentiation was tested electrophysiologically by sampling field EPSCs (fEPSCs) before and after TBS. The whole cell recording was obtained under perforated patch configuration to avoid wash-out of the intracellular components critical for synaptic plasticity. The membrane potential was clamped at −70 mV and EPSCs were evoked by field stimulation at a sampling frequency of 0.03 Hz. [Mg^2+]o during sampling was 4 mM to reduce background neural activity. The intensity of field stimulation was adjusted to produce a half maximal fEPSC amplitude. After 30 minutes of sampling were employed to determine the baseline level of synaptic strength, the bath solution was changed to 1.2 mM [Mg^2+]o and the recording configuration to current-clamp mode to allow for membrane voltage fluctuations. TBS was delivered at the same amplitude and temporal profiles as for the FM experiments.

[5] = test system: cultured hippocampal neurons; assay: control recordings of membrane potential, synaptic inputs and firing; assay type: cell-based, rat
Method: as §2

[6] = test system: recognition memory of 1-year old rats; assay: novel object recognition; settings: rat, in vivo
Method: as §1
The rats were first habituated to the open-field arena by allowing them to explore it for two daily 15-min sessions. Two identical objects were present in the arenas during habituation sessions; those objects were not used in the subsequent experimental trials. The rat was placed into the arena with two identical sample objects and allowed to explore for 10 min (familiarization phase). For the double-training test, the familiarization phase was repeated with the interval of 10 min. The rat was then removed and the objects were replaced with two new objects; one of the new objects was identical to the sample and the other was a novel object that the rat had never before encountered. The rat was returned to the arena for the retention test and allowed to explore for 5 min (retention test). The retention intervals were 10 min and 24 hours. Rats spent the retention interval in a cage in the colony room. Objects were cleaned thoroughly between trials with 20% ethanol solution to ensure the absence of olfactory cues. The particular objects for a given trial were randomly determined, but each object was used for only one trial per rat.
The criteria for exploration were strictly based on active exploration, in which rats had to be sniffing or touching the object with the nose and/or forepaws. The main dependent measure was the exploration ratio, that is, the proportion of total object-exploration that was spent exploring the novel object (tnovel/[tnovel+tfamiliar]) during the 5-min test phase. To determine whether the rats discriminated between the novel and familiar objects, the exploration ratios obtained under each condition were compared with what would be expected by chance (i.e., a ratio of ˜50%), using one-sample Student's t tests.

[7] = test system: excitatory and inhibitory terminals

[Mg+2] [Mg^++]
increase in CSF [Mg] [1]: approximately 0.13 mM | F2/F1 [2]: 2.3±0.1 | N2/N1 [2]: 2.1±0.1 | Pr increase after TBS [2]: 2.3 fold | enhancement of synaptic plasticity [2]: ~2 fold | increase in number of detectable FM puncta after TBS [2]: 2.1 fold | increase in total presynaptic strength after TBS [2]: 5.5 fold | increase in total presynaptic strength after induction [2]: 3.9 fold | increase of plasticity of presynaptic terminals (S2/S1) [2]: 2.4 fold | increase of synaptic strength at optimum concentration [2]: up to approximately five-fold | optimal concentration for plasticity (maximal potentiability) [2]: 1.2 mM | plasticity of presynaptic terminals after partial block of Ca flux [2]: significant increases of plasticity | plasticity under long term treatments [2]: retain high plasticity persistently | time for which potentiation was stable [2]: at least 1.5 hours | general status of the rats (body weight, mobility) [3]: did not observe any significant change in the general status | TBS-induced increase in fEPSC amplitude [4]: 2.7 fold | duration of fEPSC increase [4]: at least 1.5 hours | fEPSC2/fEPSC1 [4]: 2.7±0.6 | increase of synaptic strength after TBS induction, average [4]: 2.7 fold | time to maximum of fEPSC increase after TBS [4]: ~10 min | EPSC1.2/EPSC0.8, overall synaptic inputs during network activity [5]: 1.03±0.1 | EPSP1.2/EPSP0.8, spontaneous miniature EPSPAMPAs [5]: 0.9±0.1 | change in average firing rates of neurons within cultured neural networks [5]: none of these treatments induces a significant change | effect on exploratory activity or motivation [6]: no effect on exploratory activity or motivation | exploratory preference towards the novel object, short-term and long-term memory trials [6]: significant exploratory preference towards the novel object | preference to the novel object, long-term [6]: 60% | preference to the novel object, short-term memory test [6]: 75% | preference towards the novel object, long-term memory test [6]: retained the same level of preference for 24 hours; also recorded: significant exploratory preference towards the novel object in long-term memory trials | total time exploring both identical objects during training [6]: 24.1 ± 2.5 s | increase of synaptic density [7]: ~30% | neuronal density and morphology [7]: normal neuronal density and morphology
